Tests used:
[1] = Blood concentration measurement test (oral administration to mice); type: in vivo, mice (Balb/cA); settings: 50 mg/10 mL/kg; for AUC0-24 hr: mice (Balb/cA) under feeding conditions, Compound 1 in plasma, LC-MS/MS
Procedure: Respective solutions for administration (50 mg/10 mL/kg) of the Form I crystal and Form II crystal were produced. These solutions were administered orally to mice (Balb/cA) bred under feeding conditions at a volume of 10 mL/kg body weight using a sonde for oral administration. After the administration, the mice were returned to cages for mice to inspect their conditions. Water and feed were freely available for the mice in the cages. The mice were anesthetized with isoflurane 1, 2, 3, 4, 8 and 24 hours after the administration and 60 μL of blood was collected from their orbital sinuses using capillary blood collection tubes. The collected blood was cooled on ice and centrifuged to separate plasma.
AUCs0-24 hrwere calculated with a linear-log trapezoid method using Phoenix WinNonlin (v6.3.0), software from Pharsight, from the concentrations of Compound 1 in plasma samples measured with Multiple Reaction Monitoring method using LC-MS/MS.
Therefore, the Form II crystal according to the present invention is remarkably excellent in oral absorbability and useful as an oral pharmaceutical composition.

[2] = Solid stability test (accelerated test), related substances by HPLC; type: physicochemical
Procedure: The solid stability of the Form II crystal obtained in Example 1 after storage of 1, 3 and 6 months at 40° C.±2° C./75% RH±5% RH was measured under the following conditions. • Storage conditions: 40° C.±2° C./75% RH±5% RH • Measurement points: 1, 3 and 6 month • Storage amount: 6 g • Storage container: doubled plastic bags, banding bands+plastic drums • Preparation method of sample solution: 100 mg of the Form II crystal is accurately measured, a mixed solution of acetonitrile-water (4:1) is added to dissolve the crystal (sonicated to dissolve, if difficult to dissolve), and the solution is diluted in measuring cylinder to exact 200 mL total. 10 mL of this solution is accurately measured, and a mixed solution of acetonitrile-water (1:1) is added to exact 20 mL to be used as a sample solution.
HPLC was performed in the following conditions. • Column: general foundation Chemicals Evaluation and Research Institute, Japan L-column2 ODS • Particle size: 3 μm, Inner diameter: 4.6 mm, Length: 15 cm • Measurement wavelength: 220 nm • Mobile phase: Mobile phase A: 10 mmol/L phosphate buffer (pH6.9), • Mobile phase B: acetonitrile • Flow rate: about 1.0 mL/min
The concentration gradient is controlled by changing the mixing ratio of mobile phases A and B as follows, when feeding the liquid.
The amounts of related substances in the sample solutions were measured and evaluated by HPLC, of which result is shown in Table 3.
The related substances are defined as substances detected other than 3-ethyl-4-{3-isopropyl-4-(4-(1-methyl-1H-pyrazol-4-yl)-1H-imidazol-1-yl)-1H-pyrazolo[3,4-b]pyridin-1-yl}benzamide.

| AUC0-24 hr [1] [µM·h] | AUC0-24 hr of the Form II crystal relative to the Form I crystal ([1]; mice (Balb/cA)) | Related substances ([2]; storage 1 month at 40° C.±2° C./75% RH±5% RH) | Related substances ([2]; storage 3 months at 40° C.±2° C./75% RH±5% RH) | Related substances ([2]; storage 6 months at 40° C.±2° C./75% RH±5% RH) | Compound |
| --- | --- | --- | --- | --- | --- |
| 59.64 | – | – | – | – | CCc1cc(C(N)=O)ccc1-n1nc(C(C)C)c2c(-n3cnc(-c4cnn(C)c4)c3)ccnc21 [Form I crystal, 3-ethyl-4-{3-isopropyl-4-(4-(1-methyl-1H-pyrazol-4-yl)-1H-imidazol-1-yl)-1H-pyrazolo[3,4-b]pyridin-1-yl}benzamide] |
| 171.33 | approximately 3 times | less than 0.1% | less than 0.1% | less than 0.1% | CCc1cc(C(N)=O)ccc1-n1nc(C(C)C)c2c(-n3cnc(-c4cnn(C)c4)c3)ccnc21 [Form II crystal, 3-ethyl-4-{3-isopropyl-4-(4-(1-methyl-1H-pyrazol-4-yl)-1H-imidazol-1-yl)-1H-pyrazolo[3,4-b]pyridin-1-yl}benzamide] |
